Experimental data as given in patent publication US7067694B2, “Halogen-substituted amino dicarboxylic acid derivatives as medicaments for treating cardiovascular diseases” (Bayer Aktiengesellschaft, priority 2001, dated 2006).

Tested on: arteria saphena rings
Assay: Vasorelaxant effect in vitro (phenylephrine-contracted rabbit arteria saphena rings)
Format: cell-based, Rabbits
Settings: Oryctolagus cuniculus, contraction by phenylephrine, 37° C., 0.1% DMSO, read-out: IC50, concentration necessary to reduce the height of the contraction control value by 50%
Method: Vasorelaxant Effect in vitro
Rabbits are anesthetized or killed by intravenous injection of thiopental sodium (about 50 mg/kg) and exsanguinated. The arteria saphena is removed and divided into rings 3 mm wide. The individual rings are in each case mounted on a pair of hooks of triangular shape, open at the ends and made of special wire (Remanium®) having a diameter of 0.3 mm. Under pretension, each ring is introduced into a 5 ml organ bath containing carbogen-gassed Krebs-Henseleit solution at 37° C. with the following composition (mM): NaCl: […]; KCl: 4.8; CaCl2×2H2O: 1; MgSO4×7H2O: 1.4; KH2PO4: 1.2; NaHCO3: 25; glucose: 10; bovine serum albumin: 0.001%. The force of contraction is detected with Statham UC2 cells, amplified and digitized via A/D converters (DAS-1802 HC, Keithley Instruments, Munich) and recorded in parallel on chart recorders. Contractions are generated by adding phenylephrine.
After several (generally 4) control cycles, the substance to be investigated is added in each further run in increasing dosage, and the height of the contraction reached under the influence of the test substance is compared with the height of the contraction reached in the last preceding run. The concentration necessary to reduce the height of the control value by 50% (IC50) is calculated from this. The standard application volume is 5 μl. The DMSO content in the bath solution corresponds to 0.1%.

Row | IC50 [nM] | SMILES
1 | 1.1 | O=C(O)CCCCN(CCc1ccc(F)cc1OCc1ccc(C2CCCCC2)cc1)Cc1ccc(C(=O)O)cc1 [Example 1, 4-{[(4-carboxybutyl)(2-{2-[(4-cyclohexylbenzyl)oxy]-4-fluorophenyl}ethyl)amino]methyl}benzoic acid]
2 | 1.5 | O=C(O)CCCCN(CCc1cc(F)ccc1OCc1ccc(C2CCCCC2)cc1)Cc1ccc(C(=O)O)cc1 [Example 2]
3 | 1 | O=C(O)CCCCN(CCc1cc(Cl)ccc1OCc1ccc(-c2ccc(C(F)(F)F)cc2)cc1)Cc1ccc(C(=O)O)cc1 [Example 3]
4 | 8.1 | O=C(O)CCCCN(CCc1cc(Cl)ccc1OCc1ccc(-c2ccc(Cl)cc2)cc1)Cc1ccc(C(=O)O)cc1 [Example 6]
5 | 8.3 | COc1ccc(-c2ccc(COc3ccc(Cl)cc3CCN(CCCCC(=O)O)Cc3ccc(C(=O)O)cc3)c(Cl)c2)cc1 [Example 9]

Tested on: not given
Assay: not given
Settings: not given

Row | melting point [°C] | SMILES
6 | > 250 | O=C(O)CCCCN(CCc1ccc(F)cc1OCc1ccc(C2CCCCC2)cc1)Cc1ccc(C(=O)O)cc1 [Example 1, 4-{[(4-carboxybutyl)(2-{2-[(4-cyclohexylbenzyl)oxy]-4-fluorophenyl}ethyl)amino]methyl}benzoic acid]
